Experimental data taken from publication PMC5218480 (PLoS ONE, 2017).

Test system: MV-4-11 cells
Assay: Gene expression microarray analysis (Affymetrix PrimeView) and GSEA
Type: cell-based, human
Parameters: RFU PODN (11730768_x_at) / Fold change /veh PODN (11730768_x_at) / RFU LINC00158 (11744669_a_at) / Fold change /veh LINC00158 (11744669_a_at) / RFU DUSP10 (11751237_a_at) / Fold change /veh DUSP10 (11751237_a_at) / RFU ID3 (11757404_x_at) / Fold change /veh ID3 (11757404_x_at) / RFU PLEKHG5 (11737974_s_at) / Fold change /veh PLEKHG5 (11737974_s_at) / RFU LRRC4B (11730491_at) / Fold change /veh LRRC4B (11730491_at) / RFU GIMAP4 (11747438_a_at) / Fold change /veh GIMAP4 (11747438_a_at) / RFU KRT8 (11758183_x_at) / Fold change /veh KRT8 (11758183_x_at) / RFU CNN1 (11734310_a_at) / Fold change /veh CNN1 (11734310_a_at) / RFU VPS37D (11726825_at) / Fold change /veh VPS37D (11726825_at) / RFU C10orf10 (11716522_x_at) / Fold change /veh C10orf10 (11716522_x_at) / RFU KIR2DL2 /// KIR2DL4 /// KIR2DL5A /// KIR2DL5B /// KIR2DS1 /// KIR2DS2 /// KIR2DS3 /// KIR2DS4 /// KIR3DL3 /// KIR3DL3 /// KIR3DS1 (11738374_at) / Fold change /veh KIR2DL2 /// KIR2DL4 /// KIR2DL5A /// KIR2DL5B /// KIR2DS1 /// KIR2DS2 /// KIR2DS3 /// KIR2DS4 /// KIR3DL3 /// KIR3DL3 /// KIR3DS1 (11738374_at) / RFU C1QL1 (11718748_at) / Fold change /veh C1QL1 (11718748_at) / RFU TMPRSS4 (11747572_a_at) / Fold change /veh TMPRSS4 (11747572_a_at) / RFU HAMP (11756126_x_at) / Fold change /veh HAMP (11756126_x_at) / RFU RNFT2 (11725882_a_at) / Fold change /veh RNFT2 (11725882_a_at) / RFU NR4A2 (11747474_a_at) / Fold change /veh NR4A2 (11747474_a_at) / RFU ABCC12 (11746883_a_at) / Fold change /veh ABCC12 (11746883_a_at) / RFU TMEM136 (11760407_x_at) / Fold change /veh TMEM136 (11760407_x_at) / RFU CLDN22 /// WWC2 (11732394_at) / Fold change /veh CLDN22 /// WWC2 (11732394_at) / RFU HLA-DPB1 (11760878_x_at) / Fold change /veh HLA-DPB1 (11760878_x_at) / RFU SPINT1 (11716480_a_at) / Fold change /veh SPINT1 (11716480_a_at) / RFU GAP43 (11754022_s_at) / Fold change /veh GAP43 (11754022_s_at) / RFU A4GNT (11735810_at) / Fold change /veh A4GNT (11735810_at) / RFU PRB3 (11715151_x_at) / Fold change /veh PRB3 (11715151_x_at) / RFU TUBB4B (11761932_at) / Fold change /veh TUBB4B (11761932_at) / RFU CAPN14 (11732068_a_at) / Fold change /veh CAPN14 (11732068_a_at) / RFU TMCC2 (11721928_a_at) / Fold change /veh TMCC2 (11721928_a_at) / RFU IRGQ (11745062_a_at) / Fold change /veh IRGQ (11745062_a_at) / RFU FAM174B (11720279_a_at) / Fold change /veh FAM174B (11720279_a_at) / RFU TMPRSS4 (11748680_a_at) / Fold change /veh TMPRSS4 (11748680_a_at) / RFU FAM212B (11763350_a_at) / Fold change /veh FAM212B (11763350_a_at) / RFU PLEKHG5 (11743358_a_at) / Fold change /veh PLEKHG5 (11743358_a_at) / RFU ZSCAN30 (11745921_a_at) / Fold change /veh ZSCAN30 (11745921_a_at) / RFU CMKLR1 (11741424_a_at) / Fold change /veh CMKLR1 (11741424_a_at) / RFU LOC101060620 /// MAPK8IP1 (11723275_at) / Fold change /veh LOC101060620 /// MAPK8IP1 (11723275_at) / RFU SPTSSB (11747773_x_at) / Fold change /veh SPTSSB (11747773_x_at) / RFU PRSS12 (11739890_at) / Fold change /veh PRSS12 (11739890_at) / RFU BIN1 (11741810_x_at) / Fold change /veh BIN1 (11741810_x_at) / RFU WNT11 (11732464_a_at) / Fold change /veh WNT11 (11732464_a_at) / RFU C10orf10 (11716521_a_at) / Fold change /veh C10orf10 (11716521_a_at) / RFU C5orf56 (11738089_at) / Fold change /veh C5orf56 (11738089_at) / RFU CYB561 (11721691_x_at) / Fold change /veh CYB561 (11721691_x_at) / RFU ANKRD19P (11752326_a_at) / Fold change /veh ANKRD19P (11752326_a_at) / RFU OR2T12 /// OR2T33 /// OR2T8 (11738714_s_at) / Fold change /veh OR2T12 /// OR2T33 /// OR2T8 (11738714_s_at) / RFU VCAN (11748164_a_at) / Fold change /veh VCAN (11748164_a_at) / RFU JSRP1 (11732532_at) / Fold change /veh JSRP1 (11732532_at) / RFU KRTAP10-11 (11738290_x_at) / Fold change /veh KRTAP10-11 (11738290_x_at) / RFU MYO3A (11730013_a_at) / Fold change /veh MYO3A (11730013_a_at) / RFU EBF3 (11725865_a_at) / Fold change /veh EBF3 (11725865_a_at) / RFU CAMK2N1 (11719241_x_at) / Fold change /veh CAMK2N1 (11719241_x_at) / RFU C5orf56 (11738088_a_at) / Fold change /veh C5orf56 (11738088_a_at) / RFU OLFML3 (11715873_a_at) / Fold change /veh OLFML3 (11715873_a_at) / RFU LOC100653217 /// NTM (11731650_a_at) / Fold change /veh LOC100653217 /// NTM (11731650_a_at) / RFU MAPK11 (11762145_a_at) / Fold change /veh MAPK11 (11762145_a_at) / RFU FIZ1 (11724087_x_at) / Fold change /veh FIZ1 (11724087_x_at) / RFU OASL (11726364_x_at) / Fold change /veh OASL (11726364_x_at) / RFU SOX15 (11748057_x_at) / Fold change /veh SOX15 (11748057_x_at) / RFU CD79A (11719716_a_at) / Fold change /veh CD79A (11719716_a_at) / RFU HIST1H1D (11736915_at) / Fold change /veh HIST1H1D (11736915_at) / RFU CASKIN2 (11723855_a_at) / Fold change /veh CASKIN2 (11723855_a_at) / RFU LOC730098 (11760151_x_at) / Fold change /veh LOC730098 (11760151_x_at) / RFU OR4N2 (11742367_at) / Fold change /veh OR4N2 (11742367_at) / RFU PRRT2 (11749266_a_at) / Fold change /veh PRRT2 (11749266_a_at) / RFU SNX32 (11753110_a_at) / Fold change /veh SNX32 (11753110_a_at) / RFU CDHR5 (11726645_a_at) / Fold change /veh CDHR5 (11726645_a_at) / RFU RCAN1 (11760418_a_at) / Fold change /veh RCAN1 (11760418_a_at) / RFU FAM167A (11723789_a_at) / Fold change /veh FAM167A (11723789_a_at) / RFU FAM26E (11764081_at) / Fold change /veh FAM26E (11764081_at) / RFU ISYNA1 (11749810_s_at) / Fold change /veh ISYNA1 (11749810_s_at) / RFU ACY1 (11761880_at) / Fold change /veh ACY1 (11761880_at) / RFU 11764098_at / Fold change /veh 11764098_at / RFU SAMD14 (11745864_x_at) / Fold change /veh SAMD14 (11745864_x_at) / RFU NPB (11741838_a_at) / Fold change /veh NPB (11741838_a_at) / RFU TMPRSS6 (11731388_a_at) / Fold change /veh TMPRSS6 (11731388_a_at) / RFU KRTAP10-2 (11738614_at) / Fold change /veh KRTAP10-2 (11738614_at) / RFU ARHGAP8 /// PRR5-ARHGAP8 (11727945_x_at) / Fold change /veh ARHGAP8 /// PRR5-ARHGAP8 (11727945_x_at) / RFU KRTAP5-7 /// NADSYN1 (11734609_at) / Fold change /veh KRTAP5-7 /// NADSYN1 (11734609_at) / RFU RASL12 (11751679_a_at) / Fold change /veh RASL12 (11751679_a_at) / RFU CDKN2B (11736163_a_at) / Fold change /veh CDKN2B (11736163_a_at) / RFU PRF1 (11729649_at) / Fold change /veh PRF1 (11729649_at) / RFU, ZNF638 /// ZNF638-IT1 / Fold change vs veh, ZNF638 /// ZNF638-IT1 / RFU, PANK3 / Fold change vs veh, PANK3 / RFU, SH3YL1 / Fold change vs veh, SH3YL1 / RFU, ZEB2 / Fold change vs veh, ZEB2 / RFU, NRIP1 / Fold change vs veh, NRIP1 / RFU, PTTG1IP / Fold change vs veh, PTTG1IP / RFU, CAPN2 / Fold change vs veh, CAPN2 / RFU, MED14 / Fold change vs veh, MED14 / RFU, SNORA58 / Fold change vs veh, SNORA58 / RFU, C1orf63 / Fold change vs veh, C1orf63 / RFU, LRRFIP1 / Fold change vs veh, LRRFIP1 / RFU, NDUFAF7 / Fold change vs veh, NDUFAF7 / RFU, SLC12A2 / Fold change vs veh, SLC12A2 / RFU, IBTK / Fold change vs veh, IBTK / RFU, ESF1 / Fold change vs veh, ESF1 / Fold change vs veh, TMEM50B / RFU, TAOK1 / Fold change vs veh, TAOK1 / RFU, ACBD3 / Fold change vs veh, ACBD3 / RFU, TMA16 / Fold change vs veh, TMA16 / RFU, RWDD3 / Fold change vs veh, RWDD3 / RFU, BCAT1 / Fold change vs veh, BCAT1 / RFU, EDEM3 / Fold change vs veh, EDEM3 / RFU, TMEM33 / Fold change vs veh, TMEM33 / RFU, WDR75 / Fold change vs veh, WDR75 / RFU, AHCTF1 / Fold change vs veh, AHCTF1 / RFU, TFRC / Fold change vs veh, TFRC / RFU, ZDHHC17 / Fold change vs veh, ZDHHC17 / RFU, NOM1 / Fold change vs veh, NOM1 / RFU, ARL8B / Fold change vs veh, ARL8B / RFU, ZBTB11 / Fold change vs veh, ZBTB11 / RFU, TAMM41 / Fold change vs veh, TAMM41 / RFU, KIAA1704 /// LOC100996395 / Fold change vs veh, KIAA1704 /// LOC100996395 / RFU, ING1 / Fold change vs veh, ING1 / RFU, TRMT61B / Fold change vs veh, TRMT61B / RFU, FUBP3 / Fold change vs veh, FUBP3 / RFU, TP53 / Fold change vs veh, TP53 / RFU, TNKS2 / Fold change vs veh, TNKS2 / RFU, ZFP14 / Fold change vs veh, ZFP14 / RFU, ACTR2 / Fold change vs veh, ACTR2 / RFU, PPP3R1 / Fold change vs veh, PPP3R1 / RFU, PIK3R1 / Fold change vs veh, PIK3R1 / RFU, HNRNPA1 / Fold change vs veh, HNRNPA1 / RFU, RNF170 / Fold change vs veh, RNF170 / RFU, ZNF28 / Fold change vs veh, ZNF28 / RFU, RNGTT / Fold change vs veh, RNGTT / RFU, OGT / Fold change vs veh, OGT / RFU, BRD1 / Fold change vs veh, BRD1 / RFU, MARS / Fold change vs veh, MARS / RFU, ZNF655 / Fold change vs veh, ZNF655 / RFU, FAHD1 / Fold change vs veh, FAHD1 / RFU, BDP1 / Fold change vs veh, BDP1 / RFU, LRRCC1 / Fold change vs veh, LRRCC1 / RFU, ARID1A / Fold change vs veh, ARID1A / RFU, ZNF146 / Fold change vs veh, ZNF146 / RFU, ZNF330 / Fold change vs veh, ZNF330 / RFU, GPN3 / Fold change vs veh, GPN3 / RFU, C9orf123 / Fold change vs veh, C9orf123 / RFU, N4BP2L2 / Fold change vs veh, N4BP2L2 / RFU, ARFIP1 / Fold change vs veh, ARFIP1 / RFU, FAM179B / Fold change vs veh, FAM179B / RFU, BCL10 / Fold change vs veh, BCL10 / RFU, UHRF1BP1L / Fold change vs veh, UHRF1BP1L / RFU, BET1 / Fold change vs veh, BET1 / RFU, CNOT2 / Fold change vs veh, CNOT2 / RFU, ZNF268 / Fold change vs veh, ZNF268 / Fold change vs veh, ZNF507 / RFU, DGCR2 / Fold change vs veh, DGCR2 / RFU, WDSUB1 / Fold change vs veh, WDSUB1 / Fold change vs veh, HSP90B1 /// MIR3652 / RFU, ADSS / Fold change vs veh, ADSS / RFU, GK / Fold change vs veh, GK / RFU, ZNF148 / Fold change vs veh, ZNF148 / RFU, TAF9 / Fold change vs veh, TAF9 / RFU, SLC1A5 / Fold change vs veh, SLC1A5 / RFU, SLMO2 / Fold change vs veh, SLMO2 / RFU, ABCC4 / Fold change vs veh, ABCC4 / RFU, LOC101060439 /// RAP1B / Fold change vs veh, LOC101060439 /// RAP1B / RFU, RFX7 / Fold change vs veh, RFX7 / RFU, GTPBP10 / Fold change vs veh, GTPBP10 / RFU, CNEP1R1 / Fold change vs veh, CNEP1R1 / RFU, BIVM-ERCC5 /// ERCC5 / Fold change vs veh, BIVM-ERCC5 /// ERCC5 / RFU, ILF3 / Fold change vs veh, ILF3 / RFU 11762660_at / Fold change /veh 11762660_at / RFU VCAN (11757783_s_at) / Fold change /veh VCAN (11757783_s_at) / RFU DDX43 (11728927_at) / Fold change /veh DDX43 (11728927_at) / RFU KRT8 (11758188_x_at) / Fold change /veh KRT8 (11758188_x_at) / RFU NKD1 (11759106_at) / Fold change /veh NKD1 (11759106_at) / RFU SRD5A1 (11742802_a_at) / Fold change /veh SRD5A1 (11742802_a_at) / RFU TPSAB1 /// TPSB2 (11721975_s_at) / Fold change /veh TPSAB1 /// TPSB2 (11721975_s_at) / RFU GSTM3 (11746129_a_at) / Fold change /veh GSTM3 (11746129_a_at) / RFU IL23R (11737362_x_at) / Fold change /veh IL23R (11737362_x_at) / RFU TMEM51 (11727254_a_at) / Fold change /veh TMEM51 (11727254_a_at) / RFU PIWIL2 (11732686_x_at) / Fold change /veh PIWIL2 (11732686_x_at) / RFU ORM1 (11744905_x_at) / Fold change /veh ORM1 (11744905_x_at) / RFU CCDC152 (11743942_at) / Fold change /veh CCDC152 (11743942_at) / RFU ECM1 (11717891_a_at) / Fold change /veh ECM1 (11717891_a_at) / RFU IL23R (11748794_a_at) / Fold change /veh IL23R (11748794_a_at) / RFU TNFAIP8L3 (11732012_x_at) / Fold change /veh TNFAIP8L3 (11732012_x_at) / RFU MBOAT4 (11741988_at) / Fold change /veh MBOAT4 (11741988_at) / RFU 11764193_at / Fold change /veh 11764193_at / RFU TMEM53 (11763286_at) / Fold change /veh TMEM53 (11763286_at) / RFU MAGEB2 (11727129_at) / Fold change /veh MAGEB2 (11727129_at) / RFU TMEM200A (11744735_a_at) / Fold change /veh TMEM200A (11744735_a_at) / RFU CCDC152 (11751479_a_at) / Fold change /veh CCDC152 (11751479_a_at) / RFU FAM211A (11726209_a_at) / Fold change /veh FAM211A (11726209_a_at) / RFU RGS16 (11746705_a_at) / Fold change /veh RGS16 (11746705_a_at) / RFU VCAN (11755009_s_at) / Fold change /veh VCAN (11755009_s_at) / RFU RHOB (11743442_s_at) / Fold change /veh RHOB (11743442_s_at) / RFU RGS16 (11720943_a_at) / Fold change /veh RGS16 (11720943_a_at) / RFU RGS16 (11720944_at) / Fold change /veh RGS16 (11720944_at) / RFU, VPS4B / Fold change vs veh, VPS4B / RFU, CREB1 / Fold change vs veh, CREB1 / RFU, DNAJC13 / Fold change vs veh, DNAJC13 / RFU, GNAQ / Fold change vs veh, GNAQ / RFU, CDK5R1 / Fold change vs veh, CDK5R1 / RFU, ZRANB3 / Fold change vs veh, ZRANB3 / RFU, CUL4A / Fold change vs veh, CUL4A / RFU, CCNY / Fold change vs veh, CCNY / RFU, UFL1 / Fold change vs veh, UFL1 / RFU, COG3 / Fold change vs veh, COG3 / RFU, DIAPH2 / Fold change vs veh, DIAPH2 / RFU, SKA2 / Fold change vs veh, SKA2 / RFU, AFF3 / Fold change vs veh, AFF3 / RFU, LMF1 / Fold change vs veh, LMF1 / RFU, IPO11 / Fold change vs veh, IPO11 / RFU, DFFB / Fold change vs veh, DFFB / RFU, FOXP1 / Fold change vs veh, FOXP1 / RFU, CARD8 / Fold change vs veh, CARD8 / RFU, STRN3 / Fold change vs veh, STRN3 / RFU, ADK / Fold change vs veh, ADK / RFU, RASSF2 / Fold change vs veh, RASSF2 / RFU, WIPF1 / Fold change vs veh, WIPF1 / RFU, LARP1B / Fold change vs veh, LARP1B / RFU, RASA1 / Fold change vs veh, RASA1 / RFU, RB1 / Fold change vs veh, RB1 / RFU, PPFIA1 / Fold change vs veh, PPFIA1 / RFU, MAT2A / Fold change vs veh, MAT2A / RFU, CCT5 / Fold change vs veh, CCT5 / RFU, WDR92 / Fold change vs veh, WDR92 / RFU, CUX1 / Fold change vs veh, CUX1 / RFU, TTC7A / Fold change vs veh, TTC7A / RFU, TMEM135 / Fold change vs veh, TMEM135 / RFU, DEPTOR / Fold change vs veh, DEPTOR / RFU, CPM / Fold change vs veh, CPM / RFU, DNAJB6 / Fold change vs veh, DNAJB6 / RFU, CACNA2D3 / Fold change vs veh, CACNA2D3 / RFU, DTX4 / Fold change vs veh, DTX4 / RFU, TFCP2 / Fold change vs veh, TFCP2 / RFU, GMCL1 /// GMCL1P1 / Fold change vs veh, GMCL1 /// GMCL1P1 / RFU, AEBP2 / Fold change vs veh, AEBP2 / RFU, SNHG1 /// SNORD22 /// SNORD25 /// SNORD26 /// SNORD27 /// SNORD28 /// SNORD29 /// SNORD31 / Fold change vs veh, SNHG1 /// SNORD22 /// SNORD25 /// SNORD26 /// SNORD27 /// SNORD28 /// SNORD29 /// SNORD31 / Fold change (Aza/veh), C12orf56 (ProbeSet 11735607_a_at) / Fold change (ACY-1035/veh), C12orf56 (ProbeSet 11735607_a_at) / Fold change (Aza/veh), FGFR1OP (ProbeSet 11751329_s_at) / Fold change (ACY-1035/veh), FGFR1OP (ProbeSet 11751329_s_at) / Fold change (Aza/veh), VPS36 (ProbeSet 11739960_a_at) / Fold change (ACY-1035/veh), VPS36 (ProbeSet 11739960_a_at) / RFU SYPL1 (11715823_x_at) / Fold change /veh SYPL1 (11715823_x_at) / RFU IGFBP7 (11715501_s_at) / Fold change /veh IGFBP7 (11715501_s_at) / RFU REEP3 (11722064_at) / Fold change /veh REEP3 (11722064_at) / RFU IGLL1 (11728026_x_at) / Fold change /veh IGLL1 (11728026_x_at): dose or concentration left out as unconfirmed
Conditions: ProbeSet 11723141_at; LIST B

SMILES: Nc1ccc(-c2cccs2)cc1NC(=O)c1ccc2c(c1)cc(C1CC1)n2CCN1CCOCC1 [ACY-1035]
- RFU, ZBTB11: 113.11 RFU
